Measured values from patent publication US20110207745A1 (priority 2009, published 2011).
Counter-ions that a name gives are not always drawn. Like-named read-outs stand apart in the source and are kept apart here.

What was measured:
[1] = type: physicochemical; conditions: water vapor sorption, typical laboratory humidity (55% RH)
Description: Data are collected on a VTI SGA-100 moisture balance system. For sorption isotherms, a sorption range of about 0% to about 90% relative humidity (RH) and a desorption range of about 90 to about 0% RH in 10% RH increments are used for analysis. The samples are not dried prior to analysis. Equilibrium criteria used for analysis are less than 0.0100% weight change in 5 minutes with a maximum equilibration time of 3 hours if the weight criterion is not met. Data are not corrected for the initial moisture content of the samples.
The amorphous material was placed into preset RH conditions (50% and 75% RH) for 24 hours to check dynamic moisture absorption as well as deliquescence.

[2] = Intrinsic dissolution rate in simulated biological media; type: physicochemical
Description: Intrinsic dissolution rate is determined at 37° C. using a Distek Dissolution System model 5100A with a sample size of approximately 200 mg (0.5 cm^2 disc) and 500 mL dissolution medium. The paddle speed is set to 500 rpm and the paddle height to approximately 2.54 cm above the disc surface. The concentration of sample in solution is determined by HPLC.

[3] = Description: Stress Experiments. Solids are stressed under different temperature or relative humidity (RH) environments for a measured time period. Specific RH values are achieved by placing the sample inside sealed chambers containing saturated salt solutions, as known in the art. The salt solutions are selected and prepared following an ASTM standard procedure. Samples are analyzed by XRPD immediately after removal from the stress environment.
Analyses are carried out on an Agilent® model 1100 high performance liquid chromatograph using gradient elution on a reversed phase column utilizing ultraviolet (UV) detection. Approximately 25 mg of the sample is weighed accurately and dissolved in methanol/water/trifluoroacetic acid (35:65:0.05) to a volume of 50 mL. The sample solution is analysed using the conditions specified below:
The content of the drug and related substances are quantified by area (%).
Chemical Stability. The chemical stability of Form I of the mono-HCl salt of Compound A1 was assessed by stressing the material at various temperature/relative humidity/light conditions, then analyzing by HPLC.
Chemical Stability Data. The chemical stability of a sample of Form I of the sesquifumarate salt of Compound A1 was assessed by stressing the material at various temperature/relative humidity/light conditions, then analyzing by HPLC.

[4] = Solubility in simulated biological media; type: physicochemical; conditions: mean ± SD, n = 2
Source text: Solubility and Dissolution Rate Data.
Solubility and Dissolution Rate Data. […]

[5] = Plasma exposure of efficacious doses in rodents; type: in vivo; conditions: separate tests of anxiolysis and antidepressant activity
[6] = Ultraviolet light, 25° C./60% RH, 2x ICH (2 days), stored open
[7] = Ultraviolet light, 25° C./60% RH, 3x ICH (3 days), stored open
[8] = Ultraviolet light, 25° C./60% RH, ICH (1 day), stored open
[9] = White light, 25° C./60%, ICH (7 days), stored open
[10] = 0.1M phosphate buffer, initial pH 7.5
[11] = FaSSIF (fasted-state simulated intestinal fluid), initial pH 6.51
[12] = FeSSIF (fed-state simulated intestinal fluid), initial pH 5.03
[13] = SGF (simulated gastric fluid), initial pH 1.3

## CCN(CC)C(=O)c1ccc([C@H](c2cccc(N)c2)N2CCN(Cc3ccc(F)cc3)CC2)cc1 [Form I of the sesquifumarate salt of Compound A1] [4-{(R)-(3-aminophenyl)[4-(4-fluorobenzyl)piperazin-1-yl]methyl}-N,N-diethylbenzamide]
[1]
  moisture content at equilibrium: approximately 4.5%
[2]; FaSSIF, initial pH 6.51, mean ± SD, n = 2
  IDR (intrinsic dissolution rate): 553 μg/min/cm^2
[2]; FaSSIF, initial pH 6.51, mean ± SD, n = 2, listed as Compound A1 Sesquifumarate Salt
  IDR (intrinsic dissolution rate): 553 ± 68.9 μg/min/cm^2
[2]; FeSSIF, initial pH 5.03, mean ± SD, n = 2
  IDR (intrinsic dissolution rate): 33.5 μg/min/cm^2
[2]; FeSSIF, initial pH 5.03, mean ± SD, n = 2, listed as Compound A1 Sesquifumarate Salt
  IDR (intrinsic dissolution rate): 33.5 ± 1.15 μg/min/cm^2
[2]; SGF, initial pH 1.3
  IDR (intrinsic dissolution rate): too soluble to permit determination of its IDR
[3]; 25° C./60% RH, 7 days
  % Purity (after challenge): 99.6%
  % Purity (reference material): 104.0%
[3]; 40° C./75% RH, 7 days
  % Purity (after challenge): 99.5%
  % Purity (reference material): 103.5%
[3]; 60° C./80% RH, 2 weeks, HPLC area %
  % Purity after 60° C./80% RH, 2 wks: 86.5%
[3]; 60° C./80% RH, 4 weeks, HPLC area %
  % Purity after 60° C./80% RH, 4 wks: 80.3%
[3]; 80° C., 2 weeks, HPLC area %
  % Purity after 80° C., 2 wks: 91.8%
[3]; 80° C., 4 weeks, HPLC area %
  % Purity after 80° C., 4 wks: 86.1%
[3]; 80° C., 7 days
  % Purity (after challenge): 97.1%
  % Purity (reference material): 99.8%
[3]; Photostability 3X ICH conditions, HPLC area %
  Purity after Photostability 3X ICH conditions: 93.2%
[3]; Reference, 0 days
  % Purity (after challenge): 99.6%
  % Purity (reference material): 100%
[3]; [6]
  % Purity (after challenge): 99.6%
  % Purity (reference material): 100.7%
[3]; [7]
  % Purity (after challenge): 99.4%
  % Purity (reference material): 100.9%
[3]; [8]
  % Purity (after challenge): 99.5%
  % Purity (reference material): 100.2%
[3]; [9]
  % Purity (after challenge): 99.5%
  % Purity (reference material): 101.7%
[3]; initial, before storage, HPLC area %
  Initial Purity: 98.6%
[4]; [10]
  Solubility, 3 hr: 180 µg/mL
  Solubility, 24 hr: 120 µg/mL
[4]; [11]
  Solubility, 3 hr: 4400 µg/mL
  Solubility, 24 hr: 4130 µg/mL
[4]; [12]
  Solubility, 3 hr: 2540 µg/mL
  Solubility, 24 hr: 2660 µg/mL
[4]; [13]
  Solubility, 3 hr: 17400 µg/mL
  Solubility, 24 hr: 17100 µg/mL
[5]
  mean plasma exposures produced by efficacious doses: ≥ 2 ng/mL
